The test system of the assay is CD2F1 mice, L1210 leukemia ip, survival T/C. The assay is described as follows: NCI In Vivo Anticancer Drug Screen. Data for tumor model L1210 Leukemia (intraperitoneal) in CD2F1 (CDF1) mice. The note with it: endpoint: mean survival time, higher = longer survival. The gist of the method: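 Ratio T/C, where T is the treated-group value and C the vehicle-dosed control value, from mice implanted with a transplantable tumor.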

[1] abbreviates: dose: 12.5 mg/kg/injection, schedule: Q01DX005 (ip), vehicle: other.
Setting [2] is: dose: 100.0 mg/kg/injection, schedule: Q01DX009 (ip), vehicle: saline sonified.
The mark [3] stands for this setting: dose: 100.0 mg/kg/injection, schedule: Q04DX003 (ip), vehicle: saline with Tween-80.
Setting [4] is: dose: 200.0 mg/kg/injection, schedule: Q04DX003 (ip), vehicle: saline with Tween-80.
Where [5] appears, read: dose: 400.0 mg/kg/injection, schedule: Q04DX003 (ip), vehicle: saline with Tween-80.

Values joined by “and” are separate entries in the source; they are usually repeats but may differ in a detail not shown here. Identical values can stand only once. Toxic doses and inconclusive results are not listed.

In the case of `CCC1C(=O)OCc2c1cc1n(c2=O)C(CC)c2c-1nc1ccccc1c2Cl` (configuration not stated), the T/C by setting is: (dose: 100.0 mg/kg/injection, schedule: Q04DX003 (ip), vehicle: saline) 98 % of control; (dose: 200.0 mg/kg/injection, schedule: Q04DX003 (ip), vehicle: saline) 95 % of control; (dose: 400.0 mg/kg/injection, schedule: Q04DX003 (ip), vehicle: saline) 90 % of control.

As to `CCCCCCCCCCC(CCCCCCCCCC)c1ccccc1`, the T/C by setting is: (dose: 100.0 mg/kg/injection, schedule: Q01DX001 (ip), vehicle: saline sonified) 108 % of control; (dose: 200.0 mg/kg/injection, schedule: Q01DX001 (ip), vehicle: saline sonified) 104 % of control; (dose: 400.0 mg/kg/injection, schedule: Q01DX001 (ip), vehicle: saline sonified) 114 % of control.

Turning to `CCCCCCCCCCCCCCCCCCNC(=O)Nc1cccc(OC)c1`, the T/C is 96 % of control (dose: 200.0 mg/kg/injection, schedule: Q04DX002 (ip), vehicle: saline with Tween-80) and 101 % of control (dose: 400.0 mg/kg/injection, schedule: Q04DX002 (ip), vehicle: saline with Tween-80).

In the case of `CCCCCCCCCCCCCCCCCC(=O)OCC(=O)OCC(=O)[C@]1(O)Cc2c(O)c3c(c(O)c2[C@@H](OC2CC(N)C(O)C(C)O2)C1)C(=O)c1c(OC)cccc1C3=O` (some centres not stated), the T/C was 116 % of control (dose: 0.37 mg/kg/injection, schedule: Q01DX009 (ip), vehicle: saline); 122 % of control and 112 % of control (dose: 0.39 mg/kg/injection, schedule: Q01DX005 (ip), vehicle: water); 115 % of control (dose: 0.75 mg/kg/injection, schedule: Q01DX009 (ip), vehicle: saline); 118 % of control and 119 % of control (dose: 0.78 mg/kg/injection, schedule: Q01DX005 (ip), vehicle: water); 115 % of control (dose: 1.5 mg/kg/injection, schedule: Q01DX009 (ip), vehicle: saline); 152 % of control (dose: 3.13 mg/kg/injection, schedule: Q01DX005 (ip), vehicle: other). Also, the T/C was 209 % of control (dose: 3.13 mg/kg/injection, schedule: Q01DX005 (ip), vehicle: water); 156 % of control (dose: 6.25 mg/kg/injection, schedule: Q01DX005 (ip), vehicle: other); 124 % of control (dose: 6.25 mg/kg/injection, schedule: Q01DX005 (ip), vehicle: water); 157 % of control (dose: 12.0 mg/kg/injection, schedule: Q01DX009 (ip), vehicle: saline); 90 % of control under setting [1].

Take `Nc1n[nH]c2cc(=O)[nH]c(O)c12`: the T/C is 97 % of control (dose: 75.0 mg/kg/injection, schedule: Q01DX009 (ip), vehicle: saline); 106 % of control (dose: 75.0 mg/kg/injection, schedule: Q04DX003 (ip), vehicle: saline); 103 % of control (dose: 150.0 mg/kg/injection, schedule: Q01DX009 (ip), vehicle: saline); 102 % of control (dose: 150.0 mg/kg/injection, schedule: Q04DX003 (ip), vehicle: saline); 111 % of control (dose: 300.0 mg/kg/injection, schedule: Q01DX009 (ip), vehicle: saline); 106 % of control (dose: 300.0 mg/kg/injection, schedule: Q04DX003 (ip), vehicle: saline).

As for `CCOC(=O)/N=c1\ccccn1O`, the T/C (dose: 75.0 mg/kg/injection, schedule: Q01DX001 (ip), vehicle: saline) is 101 % of control; the T/C (dose: 150.0 mg/kg/injection, schedule: Q01DX001 (ip), vehicle: saline) was 101 % of control; the T/C (dose: 300.0 mg/kg/injection, schedule: Q01DX001 (ip), vehicle: saline) is 105 % of control.

On to `COc1cc2c(cc1OC)C(Cc1ccccc1)=NCC2`, for which the T/C is, setting by setting: (dose: 50.0 mg/kg/injection, schedule: Q01DX009 (ip), vehicle: saline sonified) 101 % of control; under setting [2], 101 % of control; under setting [3], 94 % of control; under setting [4], 92 % of control.

For the compound `CC(C)P(=O)(CC(=O)O)c1ccccc1` (configuration not stated), the T/C is, setting by setting: (dose: 25.0 mg/kg/injection, schedule: Q04DX002 (ip), vehicle: saline with Tween-80) 107 % of control; (dose: 50.0 mg/kg/injection, schedule: Q04DX002 (ip), vehicle: saline with Tween-80) 96 % of control; (dose: 100.0 mg/kg/injection, schedule: Q04DX002 (ip), vehicle: saline with Tween-80) 100 % of control.

In the case of `N#CC1(c2ccc(Cl)cc2)CCC1`, the T/C is, setting by setting: under setting [2], 102 % of control; under setting [3], 101 % of control; (dose: 200.0 mg/kg/injection, schedule: Q01DX009 (ip), vehicle: saline sonified) 92 % of control; under setting [4], 101 % of control; (dose: 400.0 mg/kg/injection, schedule: Q01DX009 (ip), vehicle: saline sonified) 105 % of control; under setting [5], 100 % of control.

In the case of `COc1ccc(OC)c(-c2csc(=O)s2)c1`, the T/C (dose: 25.0 mg/kg/injection, schedule: Q04DX002 (ip), vehicle: Klucel (hydroxypropylcellulose) (HPC)) is 107 % of control; the T/C (dose: 50.0 mg/kg/injection, schedule: Q04DX002 (ip), vehicle: Klucel (hydroxypropylcellulose) (HPC)) was 96 % of control; the T/C (dose: 100.0 mg/kg/injection, schedule: Q04DX002 (ip), vehicle: Klucel (hydroxypropylcellulose) (HPC)) is 102 % of control; the T/C (dose: 200.0 mg/kg/injection, schedule: Q04DX002 (ip), vehicle: Klucel (hydroxypropylcellulose) (HPC)) is 102 % of control; the T/C (dose: 400.0 mg/kg/injection, schedule: Q04DX002 (ip), vehicle: Klucel (hydroxypropylcellulose) (HPC)) is 94 % of control.

With `COC1CC(CC2CCC(C)C(C(C)C(=O)O)O2)OC2(OC(C)(C3CCC(C)(C4OC(C5OC(O)(CO)C(C)CC5C)CC4C)O3)CC2C)C1C` (configuration not stated), the T/C was 92 % of control (dose: 0.31 mg/kg/injection, schedule: Q01DX009 (ip), vehicle: Klucel (hydroxypropylcellulose) (HPC)); 106 % of control (dose: 0.63 mg/kg/injection, schedule: Q01DX009 (ip), vehicle: Klucel (hydroxypropylcellulose) (HPC)); 110 % of control (dose: 1.25 mg/kg/injection, schedule: Q01DX009 (ip), vehicle: Klucel (hydroxypropylcellulose) (HPC)); 106 % of control (dose: 2.5 mg/kg/injection, schedule: Q01DX009 (ip), vehicle: Klucel (hydroxypropylcellulose) (HPC)).

For the compound `COc1ccc(OC)c(NC(=O)NCc2ccccc2Cl)c1`, the T/C reads like this: (dose: 100.0 mg/kg/injection, schedule: Q01DX009 (ip), vehicle: saline with Tween-80) 90 % of control; (dose: 200.0 mg/kg/injection, schedule: Q01DX009 (ip), vehicle: saline with Tween-80) 100 % of control; (dose: 400.0 mg/kg/injection, schedule: Q01DX009 (ip), vehicle: saline with Tween-80) 87 % of control.

In the case of `Cc1ccnc(-n2c(N)cc(=O)[nH]c2=S)c1`, the T/C is 97 % of control under setting [3], 97 % of control under setting [4] and 96 % of control under setting [5].

On to `CN(C)c1ccc(N=Nc2nccs2)cc1`, for which the T/C (dose: 18.7 mg/kg/injection, schedule: Q04DX003 (ip), vehicle: saline with Tween-80) is 86 % of control; the T/C (dose: 37.5 mg/kg/injection, schedule: Q04DX003 (ip), vehicle: saline with Tween-80) is 102 % of control; the T/C (dose: 75.0 mg/kg/injection, schedule: Q04DX003 (ip), vehicle: saline with Tween-80) is 96 % of control.

With `CN1CCC(=C(C#N)c2ccccc2)CC1`, the T/C (dose: 12.5 mg/kg/injection, schedule: Q01DX009 (ip), vehicle: saline) is 100 % of control and the T/C (dose: 25.0 mg/kg/injection, schedule: Q01DX009 (ip), vehicle: saline) was 102 % of control.

For the compound `OCC1OC(n2cnc3c(N4CCCC4)ncnc32)C(O)C1O` (configuration not stated), the T/C is 101 % of control under setting [1]; 101 % of control (dose: 25.0 mg/kg/injection, schedule: Q01DX005 (ip), vehicle: other); 108 % of control (dose: 50.0 mg/kg/injection, schedule: Q01DX005 (ip), vehicle: other); 106 % of control (dose: 100.0 mg/kg/injection, schedule: Q01DX005 (ip), vehicle: other); 96 % of control (dose: 200.0 mg/kg/injection, schedule: Q01DX005 (ip), vehicle: other).

For `COC(=O)CC[S+](C)CCC(=O)OC`, the T/C reads like this: (dose: 7.5 mg/kg/injection, schedule: Q01DX009 (ip), vehicle: saline) 94 % of control; (dose: 15.0 mg/kg/injection, schedule: Q01DX009 (ip), vehicle: saline) 98 % of control; (dose: 30.0 mg/kg/injection, schedule: Q01DX009 (ip), vehicle: saline) 90 % of control.

Regarding `Cc1cccc(C(=O)C(=O)c2cccc(C)c2C)c1C`, the T/C (dose: 75.0 mg/kg/injection, schedule: Q01DX001 (ip), vehicle: other) is 93 % of control; the T/C (dose: 150.0 mg/kg/injection, schedule: Q01DX001 (ip), vehicle: other) was 93 % of control; the T/C (dose: 300.0 mg/kg/injection, schedule: Q01DX001 (ip), vehicle: other) was 100 % of control.

For the origin of these results see PubChem BioAssay AID256 (DTP/NCI, 2004).
